In patent publication US20250248970A1, “NOVEL SUBSTITUTED FLUORINATED N-PROPYL-PYRROLIDINE COMPOUNDS, PROCESSES FOR THEIR PREPARATION AND THERAPEUTIC USES THEREOF” (SANOFI, priority 2022, published 2025):

Target: T1, ERα (Homo sapiens, UniProt P03372)
T1 construct: host or cells: MCF7
T1 sequence (P03372 1-595): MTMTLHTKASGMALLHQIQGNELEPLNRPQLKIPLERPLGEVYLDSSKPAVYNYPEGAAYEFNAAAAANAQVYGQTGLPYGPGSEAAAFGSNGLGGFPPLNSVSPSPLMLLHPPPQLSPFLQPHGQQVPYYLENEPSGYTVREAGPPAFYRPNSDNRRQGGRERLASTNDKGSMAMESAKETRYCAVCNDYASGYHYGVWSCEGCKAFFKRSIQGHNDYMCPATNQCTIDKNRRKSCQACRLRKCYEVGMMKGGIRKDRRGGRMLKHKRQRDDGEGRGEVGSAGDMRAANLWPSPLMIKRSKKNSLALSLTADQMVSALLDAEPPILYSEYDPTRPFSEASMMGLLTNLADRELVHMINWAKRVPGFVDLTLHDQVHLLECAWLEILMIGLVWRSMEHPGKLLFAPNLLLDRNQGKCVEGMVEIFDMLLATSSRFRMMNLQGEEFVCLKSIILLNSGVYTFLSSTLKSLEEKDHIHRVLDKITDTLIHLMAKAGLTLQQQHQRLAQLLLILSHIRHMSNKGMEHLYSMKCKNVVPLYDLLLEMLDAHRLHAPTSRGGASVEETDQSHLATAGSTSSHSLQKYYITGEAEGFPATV
Assay: Estrogen receptor degradation activity (breast cancer cell ERα in cell western assay)
Type: cell-based
Details: MCF7 cells, 0.3 μM, 4 hours, % of ERα levels decrease relative to fulvestrant
Method: Said test involves measuring the in vitro degradation activity of the compounds of the Table 1a.
The measurements of the degradation activities were made using a breast cancer cell ERα in cell western assay as described hereunder.
MCF7 cells (ATCC) were seeded in 384 wells microplate (collagen coated) at a concentration of 10000 cells/30 μL per well in red phenol free MEM alpha medium (invitrogen) containing 5% charcoal dextran striped FBS. The following day, 9 points serial 1:5 dilution of each compound was added to the cells in 2.5p L at final concentrations ranging from 0.3-0.0000018 μM (in table 2), or 0.1 μM for fulvestrant (using as positive control). At 4 hours post compound addition the cells were fixed by adding 25 μL of formalin (final concentration 5% formalin containing 0.1% triton) for 10 minutes at room temperature and then washed twice with PBS. Then, 50 μL of LI-COR blocking buffer containing 0.1% Triton was added to plate for 30 minutes at room temperature. LI-COR blocking buffer was removed and cells were incubated overnight at cold room with 50 μL anti-ER rabbit monoclonal antibody (Thermo scientific MA1-39540) diluted at 1:1000 in LI-COR blocking buffer containing 0.1% tween-20. Wells which were treated with blocking buffer but no antibody were used as background control. Wells were washed twice with PBS (0.1% tween-20) and incubated at 37° C. for 60 minutes in LI-COR (0.1% tween-20) containing goat anti-rabbit antibody Alexa 488 (1:1000) and Syto-64 a DNA dye (2 μM final concentration). Cells were then washed 3 times in PBS and scanned in ACUMEN explorer (TTP-Labtech). Integrated intensities in the green fluorescence and red fluorescence were measured to determine the levels of ERα and DNA respectively.
The degradation activity with respect to estrogen receptors in this test is given by the concentration which degrades 50% of the estrogen receptor (or IC50) in nM.
The % of ERα levels decrease were determined as follows: % inhibition=100*(1−(sample−fulvestrant: DMSO−fulvestrant)).

Structure (SMILES) | % Degradation At 0.3 μM [%]
Cc1c(F)cccc1C1=C(c2ccc(CC3CCN(CCCF)C3)cc2)c2ccc(C(=O)O)cc2CCC1.Cl (single isomer, unassigned; isomer 1) [Compound 20, 8-(3-fluoro-2-methylphenyl)-9-(4-((1-(3-fluoropropyl)pyrrolidin-3-yl)methyl)phenyl)-6,7-dihydro-5H-benzo[7]annulene-3-carboxylic acid hydrochloride, Isomer 1] | 90
Cc1cc(F)cc(C)c1C1=C(c2ccc(CC3CCN(CCCF)C3)cc2)c2ccc(C(=O)O)cc2CCC1.Cl (single isomer, unassigned; isomer 1) [Compound 35, 8-(4-fluoro-2,6-dimethylphenyl)-9-(4-((1-(3-fluoropropyl)pyrrolidin-3-yl)methyl)phenyl)-6,7-dihydro-5H-benzo[7]annulene-3-carboxylic acid hydrochloride, Isomer 1] | 84
O=C(O)C(F)(F)F.O=C(O)c1ccc2c(c1)CCCC(c1ccc(Cl)cc1Cl)=C2c1ccc(CC2(F)CCN(CCCF)C2)cc1 (single isomer, unassigned; isomer 2) [Compound 22, 8-(2,4-dichlorophenyl)-9-(4-((3-fluoro-1-(3-fluoropropyl)pyrrolidin-3-yl)methyl)phenyl)-6,7-dihydro-5H-benzo[7]annulene-3-carboxylic acid, 2,2,2-trifluoroacetic acid, Isomer 2] | 48
O=C(O)c1ccc2c(c1)CCCC(c1ccc(Cl)cc1Cl)=C2c1ccc(C[C@@H]2CCN(CCCF)C2)cc1 [Compound 24, 8-(2,4-dichlorophenyl)-9-(4-((1-(3-fluoropropyl)pyrrolidin-3-yl)methyl)phenyl)-6,7-dihydro-5H-benzo[7]annulene-3-carboxylic acid, (R) Isomer] | 46
Oc1ccc2c(c1)SCCC(c1ccc(Cl)cc1Cl)=C2c1ccc(CC2CCN(CCCF)C2)cc1 (single isomer, unassigned; isomer 1) [Compound 43, 4-(2,4-dichlorophenyl)-5-(4-((1-(3-fluoropropyl)pyrrolidin-3-yl)methyl)phenyl)-2,3-dihydrobenzo[b]thiepin-8-ol, Isomer 1] | 80
O=C(O)c1ccc2c(c1)CCCC(c1ccc(F)cc1F)=C2c1ccc(CC2CCN(CCC(F)F)C2)cc1 (single isomer, unassigned; isomer 1) [Compound 10, 8-(2,4-difluorophenyl)-9-(4-((1-(3,3-difluoropropyl)pyrrolidin-3-yl)methyl)phenyl)-6,7-dihydro-5H-benzo[7]annulene-3-carboxylic acid, Isomer 1] | 84
Cc1c(Cl)cccc1C1=C(c2ccc(CC3CCN(CCCF)C3)cc2)c2ccc(C(=O)O)cc2CCC1 (single isomer, unassigned; isomer 1) [Compound 15, 8-(3-chloro-2-methylphenyl)-9-(4-((1-(3-fluoropropyl)pyrrolidin-3-yl)methyl)phenyl)-6,7-dihydro-5H-benzo[7]annulene-3-carboxylic acid, Isomer 1] | 88
O=C(O)C(F)(F)F.O=C(O)c1ccc2c(c1)CCCC(c1ccc(Cl)cc1Cl)=C2c1ccc(CC2(F)CCN(CCCF)C2)cc1 (single isomer, unassigned; isomer 1) [Compound 23, 8-(2,4-dichlorophenyl)-9-(4-((3-fluoro-1-(3-fluoropropyl)pyrrolidin-3-yl)methyl)phenyl)-6,7-dihydro-5H-benzo[7]annulene-3-carboxylic acid, 2,2,2-trifluoroacetic acid, Isomer 1] | 69
Cl.O=C(O)c1ccc2c(c1)OCCC(c1ccc(Cl)cc1Cl)=C2c1ccc(CC2CCN(CCCF)C2)cc1 (single isomer, unassigned; isomer 2) [Compound 8, 4-(2,4-dichlorophenyl)-5-(4-((1-(3-fluoropropyl)pyrrolidin-3-yl)methyl)phenyl)-2,3-dihydrobenzo[b]oxepine-8-carboxylic acid hydrochloride, Isomer 2] | 63
Cl.O=C(O)c1ccc2c(c1)CCCC(c1ccc(C(F)(F)F)cc1)=C2c1ccc(CC2CCN(CCCF)C2)cc1 (single isomer, unassigned; isomer 1) [Compound 38, 9-(4-((1-(3-fluoropropyl)pyrrolidin-3-yl)methyl)phenyl)-8-(4-(trifluoromethyl)phenyl)-6,7-dihydro-5H-benzo[7]annulene-3-carboxylic acid hydrochloride, Isomer 1] | 92
COc1ccc(C2=C(c3ccc(CC4CCN(CCCF)C4)cc3)c3ccc(C(=O)O)cc3CCC2)cn1 (single isomer, unassigned; isomer 1) [Compound 14, 9-(4-((1-(3-fluoropropyl)pyrrolidin-3-yl)methyl)phenyl)-8-(6-methoxypyridin-3-yl)-6,7-dihydro-5H-benzo[7]annulene-3-carboxylic acid, Isomer 1] | 88
O=C(O)c1ccc2c(c1)CCCC(c1ccc(F)cc1C(F)(F)F)=C2c1ccc(CC2CCN(CCCF)C2)cc1 (single isomer, unassigned; isomer 1) [Compound 18, 8-(4-fluoro-2-(trifluoromethyl)phenyl)-9-(4-((1-(3-fluoropropyl)pyrrolidin-3-yl)methyl)phenyl)-6,7-dihydro-5H-benzo[7]annulene-3-carboxylic acid, Isomer 1] | 86
CC1CCc2cc(C(=O)O)ccc2C(c2ccc(CC3CCN(CCCF)C3)cc2)=C1c1ccc(C(F)(F)F)cc1 (single isomer, unassigned; isomer 1) [Compound 41, 9-(4-((1-(3-fluoropropyl)pyrrolidin-3-yl)methyl)phenyl)-7-methyl-8-(4-(trifluoromethyl)phenyl)-6,7-dihydro-5H-benzo[7]annulene-3-carboxylic acid, Isomer 1] | 100
Cl.O=C(O)c1ccc2c(c1)CCC(c1ccc(Cl)cc1Cl)=C2c1ccc(CC2CCN(CCCF)C2)cc1 (single isomer, unassigned; isomer 1) [Compound 36, 6-(2,4-dichlorophenyl)-5-(4-((1-(3-fluoropropyl)pyrrolidin-3-yl)methyl)phenyl)-7,8-dihydronaphthalene-2-carboxylic acid hydrochloride, Isomer 1] | 92
